Test results as given in ChEMBL document CHEMBL4354883, “Design, Synthesis, and Biological Evaluation of HSP90 Inhibitor-SN38 Conjugates for Targeted Drug Accumulation” (J Med Chem, 2020).
Activity calls are given as the source filed them. No cut-off for these calls is given here.

How the values were obtained:
[1] = Half life in human plasma at 25 uM by HPLC analysis; assay type: ADME, cell-free
[2] = Half life in mouse plasma at 25 uM by HPLC analysis; assay type: ADME, cell-free
[3] = molecular target: Heat shock protein HSP 90-alpha (Homo sapiens, UniProt P07900); assay: biochemical
Description: Inhibition of recombinant human full length HSP90 alpha expressed in Escherichia coli cells after 1 hr by fluorescence polarization assay

[4] = Half life of compound in PBS buffer at pH 7.4 at 50 uM by HPLC analysis; assay type: physicochemical
[5] = Half life of compound in PBS buffer at pH 6.0 at 50 uM by HPLC analysis; assay type: physicochemical
[6] = Drug uptake in human A549 cells assessed as maximum emission peaks at 430 nm at 5 uM by fluorescence emission spectral analysis; assay type: ADME, cell-based; settings: a549, 5 µM
A549 [7] = assay: Induction of cell cycle arrest in human A549 cells at 3 to 10 nM after 24 hrs by RNase A/PI-staining based flow cytometric analysis; assay type: functional
CAPAN-1 [8] = assay: Induction of cell cycle arrest in human Capan1 cells at 3 nM after 24 hrs by RNase A/PI-staining based flow cytometric analysis; assay type: functional
MIA PaCa-2 = assay: Antiproliferative activity against human MIAPaCa2 cells assessed as reduction in cell viability after 72 hrs by SRB assay; assay type: functional, cell-based; settings: MIA PaCa-2, 72 h
L02 = assay: Cytotoxicity agains human HL7702 cells assessed as reduction in cell viability after 72 hrs by SRB assay; assay type: cell-based; settings: L02, 72 h
HCT-116 [9] = assay: Downregulation of TOP1 expression in human HCT116 cells at 0.04 uM after 24 hrs by Western blot analysis; assay type: functional, cell-based
[10] = Drug uptake in human A549 cells assessed as blue shift in absorption spectrum at 5 uM by UV-visible absorption spectral analysis; assay type: ADME, cell-based; settings: a549, 5 µM
CAPAN-1 [11] = assay: Antiproliferative activity against human Capan1 cells assessed as reduction in cell viability after 72 hrs by SRB assay; assay type: functional, cell-based; settings: CAPAN-1, 72 h
[12] = Drug uptake in human A549 cells assessed as blue fluorescence at 5 uM after 12 hrs by confocal laser scanning microscopic analysis; assay type: ADME, cell-based; settings: a549, 12 h
A549 [13] = assay: Downregulation of TOP1 expression in human A549 cells at 0.04 uM after 24 hrs by Western blot analysis; assay type: functional, cell-based
HCT-116 [14] = assay: Antiproliferative activity against human HCT116 cells assessed as reduction in cell viability after 72 hrs by SRB assay; assay type: functional, cell-based; settings: HCT-116, 72 h
HCT-116 [15] = assay: Induction of cell cycle arrest in human HCT116 cells at 3 nM after 24 hrs by RNase A/PI-staining based flow cytometric analysis; assay type: functional
A549 [16] = assay: Antiproliferative activity against human A549 cells assessed as reduction in cell viability after 72 hrs by SRB assay; assay type: functional, cell-based; settings: A549, 72 h

Row | SMILES | half-life at 25 µM [1] | half-life at 25 µM [2] | IC50 [3] | half-life at 50 µM [4] | half-life at 50 µM [5] | other results
1 | CCc1c2c(nc3ccc(O)cc13)-c1cc3c(c(=O)n1C2)COC(=O)[C@@]3(CC)OC(=O)CCNC(=O)CNc1cc(-n2nc(C(F)(F)F)c3c2CC(C)(C)CC3=O)ccc1C(N)=O | > 24 h | 17 h | 1.7 µM | 12 h | > 24 h | 
2 | CC1(C)CC(=O)c2c(C(F)(F)F)nn(-c3ccc(C(N)=O)c(N[C@H]4CC[C@H](OC(=O)CN)CC4)c3)c2C1 [SNX 5422] |  |  | 0.038 µM |  |  | 
3 | CCc1c2c(nc3ccc(O)cc13)-c1cc3c(c(=O)n1C2)COC(=O)[C@@]3(CC)OC(=O)CNC(=O)CNc1cc(-n2nc(C(F)(F)F)c3c2CC(C)(C)CC3=O)ccc1C(N)=O | 13 h | 10 h | 1.51 µM | 7 h | > 24 h | 
4 | CCc1c2c(nc3ccc(OC(=O)N4CCC(NC(=O)CNc5cc(-n6nc(C(F)(F)F)c7c6CC(C)(C)CC7=O)ccc5C(N)=O)CC4)cc13)-c1cc3c(c(=O)n1C2)COC(=O)[C@]3(O)CC | > 24 h | > 24 h | 1.26 µM | > 24 h | > 24 h | 
5 | CCc1c2c(nc3ccc(O)cc13)-c1cc3c(c(=O)n1C2)COC(=O)[C@]3(O)CC [7-ETHYL-10-HYDROXYCAMPTOTHECIN] |  |  |  |  |  | Drug uptake [6]: Active; Activity (A549 [7]): Active; Activity (CAPAN-1 [8]): Active; IC50 (MIA PaCa-2): 0.013 µM; IC50 (L02): 0.018 µM; inhibition (HCT-116 [9]): Active; Drug uptake [10]: Active; IC50 (CAPAN-1 [11]): 0.008 µM; Drug uptake [12]: Active; inhibition (A549 [13]): Active; IC50 (HCT-116 [14]): 0.004 µM; Activity (HCT-116 [15]): Active; IC50 (A549 [16]): 0.011 µM
